The text below walks through data of article doi:10.1101/2020.10.22.350827v1 (biorxiv, 2020).

Assay [1] concerns the target T1, Nluc-A1R (adenosine A1 receptor) (Homo sapiens, UniProt P30542, T257A).
T1 sequence (P30542 1-326 T257A): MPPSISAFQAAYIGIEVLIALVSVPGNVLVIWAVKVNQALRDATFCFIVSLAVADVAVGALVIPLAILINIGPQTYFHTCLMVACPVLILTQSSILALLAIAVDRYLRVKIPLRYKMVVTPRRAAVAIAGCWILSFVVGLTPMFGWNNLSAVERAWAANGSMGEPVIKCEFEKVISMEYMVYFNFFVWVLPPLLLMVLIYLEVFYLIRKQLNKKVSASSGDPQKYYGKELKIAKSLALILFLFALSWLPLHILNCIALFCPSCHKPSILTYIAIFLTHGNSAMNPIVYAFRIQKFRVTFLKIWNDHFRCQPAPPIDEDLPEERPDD
Nature of the assay: NanoBRET competition binding, live HEK […] cells. It counts as cell-based.

In assay [2] the target is T2, Nluc-A1R (adenosine A1 receptor) (Homo sapiens, UniProt P30542, L253A).
T2 sequence (P30542 1-326 L253A): T1 sequence (P30542 1-326 T257A) with L253A, A257T
The assay is described as follows: NanoBRET competition binding, live HEK […] cells. In kind it is cell-based.

Assay [3] has as its target T3, Nluc-A1R (adenosine A1 receptor) (Homo sapiens, UniProt P30542, I69A).
T3 sequence (P30542 1-326 I69A): T1 sequence (P30542 1-326 T257A) with I69A, A257T
Nature of the assay: NanoBRET competition binding, live HEK […] cells. It counts as cell-based.

Assay [4] addresses T4, Nluc-A1R (adenosine A1 receptor) L258A (Homo sapiens, UniProt P30542, L258A).
T4 sequence (P30542 1-326 L258A): T1 sequence (P30542 1-326 T257A) with A257T, L258A
Nature of the assay: cell-based. Further details: species or system HEK 293.

Assay [5] addresses T5, Nluc-A1R (adenosine A1 receptor) H264A (Homo sapiens, UniProt P30542, H264A).
T5 sequence (P30542 1-326 H264A): T1 sequence (P30542 1-326 T257A) with A257T, H264A
The assay is described as follows: cell-based. Further details: species or system HEK 293.

Assay [6] has as its target T6, Nluc-A1R (adenosine A1 receptor) Y12A (Homo sapiens, UniProt P30542, Y12A).
T6 sequence (P30542 1-326 Y12A): T1 sequence (P30542 1-326 T257A) with Y12A, A257T
Nature of the assay: cell-based. Details: species or system HEK 293.

Assay [7] addresses T7, Nluc-A1R (adenosine A1 receptor) N148A (Homo sapiens, UniProt P30542, N148A).
T7 sequence (P30542 1-326 N148A): T1 sequence (P30542 1-326 T257A) with N148A, A257T
Nature of the assay: cell-based. Details: species or system HEK 293.

Positions count from the first letter of the chain named.

`OC[C@H]1O[C@@H](n2cnc3c(N[C@@H]4CCC[C@H]4O)ncnc32)[C@H](O)[C@@H]1O` [compound 6, HOCPA]: the Ki is 115 nM in assay [1]; 3240 nM in assay [2]; 45700 nM in assay [3]; 1410 nM in assay [4]; 955 nM in assay [5]; 1660 nM in assay [6]. In addition, the inhibition constant Ki in assay [7] is 708 nM.
